Ten compounds from patent US8993523B2, “Dimeric IAP inhibitors” (Novartis AG, priority 2010, dated 2015) can be followed below.

Structures are written as SMILES.

The target of one assay is T1, XIAP-BIR3 (Homo sapiens, UniProt P98170).
T1 construct: with either 100 nM XIAP-BIR3 or 6 nM cIAP1-BIR3
The assay can be described thus: Biacore SPR solution inhibition (competition with smac7mer peptide) binding assay, XIAP-BIR3. The settings on record: 100 nM XIAP-BIR3, competition with immobilised smac7mer peptide, 25° C.; read-out: XIAP-BIR3 Binding Biacore (Competitive) EC50. The text has this:
(§1) The present method includes utility of a Surface plasmon resonance (SPR)-based biosensor (Biacore™ GE Healthcare, Uppsala, Sweden) to examine competition between the compounds of the present invention and smac7mer peptide for XIAP-BIR3 and cIAP1-BIR3 binding groove occupancy.
(§2) Biacore™ utilizes the phenomenon of surface plasmon resonance (SPR) to detect and measure binding interactions. In a typical Biacore experiment, one of the interacting molecules is immobilized on a flexible dextran matrix while the interacting partner is flowed over the derivatized surface. A binding interaction results in an increase in mass on the sensor surface and a corresponding direct change in the refractive index of the medium in the vicinity of the sensor surface. Changes in refractive index or signal are recorded in resonance units (R.U.) Signal changes due to association and dissociation of complexes are monitored in a non-invasive manner, continuously and in real-time, the results of which are reported in the form of a sensorgram.
(§3) Solution Inhibition Assay Format:
(§4) Biacore™ T100 (GE Healthcare, Uppsala, Sweden) was used to conduct all experiments reported herein. Sensor surface preparation and interaction analyses were performed at 25° C. Buffer and Biacore reagents were purchased from GE Healthcare. Running buffer containing 10 mM Hepes, pH7.4, 150 mM sodium chloride, 1.25 mM Dithiothreitol, 2% Dimethyl sulfoxide and 0.05% polysorbate 20 was utilized throughout all experiments.
(§5) Biotinylated smac7mer peptide was diluted to 10 nM in running buffer and captured onto a sensor surface pre-derivatized with streptavidin (sensor chip SA) towards peptide surface densities in the range 40-100 R.U. Peptide captured surfaces were blocked with 500 μM PEO2-Biotin (Thermo Scientific).
(§6) Interaction analyses were performed by first equilibrating each compound within a six point seven fold compound dilution series in the range 1 μM to 0.06 nM with either 100 nM XIAP-BIR3 or 6 nM cIAP1-BIR3 for at least one hour during instrument start-up procedures. Protein compound mixtures were then injected over reference and smac7mer peptide surfaces in series for 60 seconds at a flow-rate of 60 μL/min. Surface regeneration was performed at the end of each analysis cycle by a 30 second injection of 10 mM Glycine, pH 2.5, 1M Sodium Chloride, 0.05% polysorbate 20. Additionally, control compound samples and control XIAP-BIR3 or cIAP1-BIR3 samples were prepared and run at regular intervals to monitor surface and assay performance.
(§7) Data analyses were carried out using Biacore™ T100 evaluation software v2.0 to validate assay quality. Binding level report points were plotted versus logarithmic compound concentration values and analyzed in Graphpad prism 5 via non-linear regression using a one-site competition model. EC50 values were generated and used as a measure of inhibitor potency.

In another assay the target is T2, cIAP1-BIR3 (Homo sapiens, UniProt Q13490).
T2 construct: with either 100 nM XIAP-BIR3 or 6 nM cIAP1-BIR3
T2 sequence (Q13490 260-352 limits assumed): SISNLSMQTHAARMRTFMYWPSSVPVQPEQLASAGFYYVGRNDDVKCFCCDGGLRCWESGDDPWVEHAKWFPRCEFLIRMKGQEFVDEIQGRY
As to the kind of experiment: Biacore SPR solution inhibition (competition with smac7mer peptide) binding assay, cIAP1-BIR3. The note with it: 6 nM cIAP1-BIR3, competition with immobilised smac7mer peptide, 25° C.; read-out: CIAP-BIR3 Binding Biacore (Competitive) EC50.
From the text: as §1, §2, §3, §4, §5, §6, §7
On the technique in general: Surface plasmon resonance follows binding to a sensor surface in real time, without labels.

A further assay concerns Panc3.27 tumor cells. As to the kind of experiment: Cellular assay: Panc3.27 tumor cell proliferation (Cell Titer Glo). The class given is cell-based. The note with it: Panc3.27 cells, 72 hour treatment, read-out: PANC proliferation IC50. The protocol:
Cellular Assay—Treatment of Panc3.27 Tumor Cells with Dimeric IAP Antagonists
On day one adherent Panc3.27 cells are plated into two 96-well, clear, flat bottom plates. All wells in row A contain 90 uL of media. All wells in rows B-G contain a total volume of 90 uL per well and 4000 cells per well for Panc3.27 cell lines. Plates are then incubated overnight for 18 hours at 37° C., 5% CO2.
On day two cells are treated with the compounds of formula M-L-M′. Treatments are done in triplicate. The compounds are first serially diluted in DMSO and then added to media giving a final concentration of 0.2% DMSO when added to cells. Cells are treated with 10 uL of serially diluted compounds of formula M-L-M′ at a final concentration of 1000 nM, 200 nM, 40 nM, 8 nM, 1.6 nM, 0.32 nM, 0.06 nM, 0.013 nM, 0.0026 nM, and one untreated well. Plate two is used as a time zero plate.
To measure cell viability 50 uL of Cell Titer Glo (CTG) solution is added to row A, media only and B, cells and media. CTG is purchased from Promega Corporation catalog number G7573. The solution is prepared according to manufacturer's instructions. CTG measures the amount of ATP released from viable cells that is proportional to the number of cells in each well. After incubating for ten minutes with CTG plates are measured on a luminescent reader at 700 nm wavelength. Read time is approximately one second per well for a 96-well plate.
On day five 50 uL of CTG is added to plate one, rows A-G, incubated for 10 minutes at room temperature and read on a luminescent reader. Raw data is adjusted to account for the time zero plate as well as background noise. Triplicate values are averaged and percent control growth is calculated. Percent control growth is calculated using the following logical test: If well read data point (a) is greater than time zero data point (t=0), then 100*[(a)−(t=0)]/[(72 hour total growth)−(t=0)], OR 100*[(a)−(t=0)]/[(t=0)]. Data is represented by line graph with the concentration of compound on the x axis and percent control growth on the y axis.
Background: In ATP-based viability assays light output follows the ATP content of the culture.

The next assay relates to xenograft tumors. As to the kind of experiment: In vivo combination study in xenograft tumor mice. The settings on record: 1× per week, mice with xenograft tumors, 2-3 weeks. The method, then:
In vivo combination studies were performed as follows. Cohorts of mice (n=8) were treated with (1) Cohort A: Example 1A (1.8 mg/kg, 1× per week), (2) Cohort B: Paclitaxel (12 mg/kg, 1× per week), or (3) Cohort C: a combination of Example 1A (1.8 mg/kg, 1× per week)+Paclitaxel (12 mg/kg, 1× per week). Studies typically initiated dosing when xenograft tumors were 200 mm^3 and lasted 2-3 weeks. Positive combination activity occurs when neither single agent treatment alone results in tumor regression (i.e. increase in tumor volume is not inhibited in treated animals) but the combination results in tumor regression (i.e. tumor volume decreases in treated animals).

T1 sequence (P98170 241-356 limits assumed): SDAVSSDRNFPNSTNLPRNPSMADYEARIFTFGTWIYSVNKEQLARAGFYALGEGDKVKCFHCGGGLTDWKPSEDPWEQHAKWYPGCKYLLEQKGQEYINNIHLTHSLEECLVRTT

Usually EC50 stands for the concentration that produces a half-maximal response. Consider `CN[C@@H](C)C(=O)N[C@H](C(=O)N1CCC[C@H]1c1cncc(-n2ccc3c(C(=O)NCCCOCCOCCCNC(=O)c4cccc5c4ccn5-c4cncc([C@@H]5CCCN5C(=O)[C@@H](NC(=O)[C@H](C)NC)C(C)C)c4)cccc32)c1)C(C)C` [Example 1A, (S,S,S)—N,N′-(3,3′-(Ethane-1,2-diylbis(oxy))bis(propane-3,1-diyl))bis(1-(5-((S)-1-((S)-3-methyl-2-((S)-2-(methylamino)-propanamido)butanoyl)pyrrolidin-2-yl)pyridin-3-yl)-1H-indole-4-carboxamide)], for which the half-maximal effective concentration (EC50) lay within 34.5 to 56.9 nM on XIAP-BIR3 and 0.24 to 0.57 nM at cIAP1-BIR3. In addition, in the assay with Panc3.27 tumor cells, the IC50 is 0.0026 to 0.83 nM. In addition, in the assay with xenograft tumors (Cohort A: 1.8 mg/kg), the “tumor response, single agent” value was “tumor stasis was achieved”.
As to `CC(=O)O[C@H]1C(=O)[C@@]2(C)[C@H]([C@H](OC(=O)c3ccccc3)[C@]3(O)C[C@H](OC(=O)[C@H](O)[C@@H](NC(=O)c4ccccc4)c4ccccc4)C(C)=C1C3(C)C)[C@]1(OC(C)=O)CO[C@@H]1C[C@@H]2O` [Paclitaxel, reference compound], the tumor growth control in the assay on xenograft tumors (Cohort B: 12 mg/kg) is recorded as above 50%.
In the case of `CN[C@@H](C)C(=O)N[C@H](C(=O)N1CCC[C@H]1c1cncc(-n2ccc3c(C(=O)NCCCNC(=O)c4cccc5c4ccn5-c4cncc([C@@H]5CCCN5C(=O)[C@@H](NC(=O)[C@H](C)NC)C(C)C)c4)cccc32)c1)C(C)C` [Example 1C, (S,S,S)—N,N′-(propane-1,3-diyl)bis(1-(5-((S)-1-((S)-3-methyl-2-((S)-2-(methylamino)propanamido)butanol)pyrrolidin-2-yl)pyridin-3-yl)-1H-indole-4-carboxamide)], the 50% effective concentration (EC50) at XIAP-BIR3 lay within 70.7 to 71.3 nM; at cIAP1-BIR3, 1.66 to 1.71 nM. Moreover, the IC50 in the assay on Panc3.27 tumor cells fell in the range of 0.0026 to 0.14 nM.
With `CN[C@@H](C)C(=O)N[C@H](C(=O)N1CCC[C@H]1c1cncc(-n2ccc3c(C(=O)NCc4ccc(CNC(=O)c5cccc6c5ccn6-c5cncc([C@@H]6CCCN6C(=O)[C@@H](NC(=O)[C@H](C)NC)C(C)C)c5)cc4)cccc32)c1)C(C)C` [Example 1B, (S,S,S)—N,N′-(1,4-phenylenebis(methylene))bis(1-(5-((S)-1-((S)-3-methyl-2-((S)-2-(methylamino)propanamido)butanoyl)pyrrolidin-2-yl)pyridin-3-yl)-1H-indole-4-carboxamide)], the EC50 on XIAP-BIR3 lay in the range of 56.8 to 57 nM; on cIAP1-BIR3, 1.22 to 1.23 nM. Further, in the assay with Panc3.27 tumor cells, the IC50 was below 0.0026 nM.
With `CN[C@@H](C)C(=O)N[C@H](C(=O)N1CCC[C@H]1c1cncc(-n2cc(C(=O)NCCCCCCNC(=O)c3cn(-c4cncc([C@@H]5CCCN5C(=O)[C@@H](NC(=O)[C@H](C)NC)C(C)C)c4)c4ccccc34)c3ccccc32)c1)C(C)C` [Example 2L, (S,S,S)—N,N′-(hexane-1,6-diyl)bis(1-(5-((S)-1-((S)-3-methyl-2-((S)-2-(methylamino)propanamido)butanol)pyrrolidin-2-yl)pyridin-3-yl)-1H-indole-3-carboxamide)], the values for the EC50 at XIAP-BIR3 and at cIAP1-BIR3 were 25.5 to 25.8 nM and 1.71 to 1.73 nM, respectively. The IC50 in the assay with Panc3.27 tumor cells was below 0.0026 nM.
For the compound `CN[C@@H](C)C(=O)N[C@H](C(=O)N1CCC[C@H]1c1cncc(-n2cc(C(=O)N3CCN(C(=O)c4cn(-c5cncc([C@@H]6CCCN6C(=O)[C@@H](NC(=O)[C@H](C)NC)C(C)C)c5)c5ccccc45)CC3)c3ccccc32)c1)C(C)C` [Example 2O, (2S,2′S)—N,N′-((2S,2′S)-1,1′-((2S,2′S)-2,2′-(5,5′-(3,3′-(piperazine-1,4-diylbis(oxomethylene))bis(1H-indole-3,1-diyl))bis(pyridine-5,3-diyl))bis(pyrrolidine-2,1-diyl))bis(3-methyl-1-oxobutane-2,1-diyl))bis(2-(methylamino)propanamide)], the half-maximal effective concentration (EC50) at XIAP-BIR3 is 39 nM; on cIAP1-BIR3 it was 2.17 to 2.18 nM. Also, in the assay with Panc3.27 tumor cells, the IC50 was in the range of 0.54 to 1.37 nM.
Regarding `CN[C@@H](C)C(=O)N[C@H](C(=O)N1CCC[C@H]1c1cncc(-n2ccc3c(C(=O)N[C@H]4CCCC[C@@H]4NC(=O)c4cccc5c4ccn5-c4cncc([C@@H]5CCCN5C(=O)[C@@H](NC(=O)[C@H](C)NC)C(C)C)c4)cccc32)c1)C(C)C` [Example 1D, (S,S,S)—N,N′-((1S,2S)-cyclohexane-1,2-diyl)bis(1-(5-((S)-1-((S)-3-methyl-2-((S)-2-(methylamino)propanamido)butanoyl)pyrrolidin-2-yl)pyridin-3-yl)-1H-indole-4-carboxamide)], the EC50 is 76 to 76.7 nM on XIAP-BIR3 and 1.2 to 1.22 nM on cIAP1-BIR3. Further, the IC50 in the assay on Panc3.27 tumor cells was 2.61 to 2.75 nM.
As for `CN[C@@H](C)C(=O)N[C@H](C(=O)N1CCC[C@H]1c1cncc(-n2cc(C(=O)NCCCCCCCCCCCNC(=O)c3cn(-c4cncc([C@@H]5CCCN5C(=O)[C@@H](NC(=O)[C@H](C)NC)C(C)C)c4)c4ccccc34)c3ccccc32)c1)C(C)C` [Example 2H, (S,S,S)—N,N′-(undecane-1,11-diyl)bis(1-(5-((S)-1-((S)-3-methyl-2-((S)-2-(methylamino)propanamido)butanoyl)pyrrolidin-2-yl)pyridin-3-yl)-1H-indole-3-carboxamide)], the EC50 at XIAP-BIR3 fell in the range of 60.3 to 60.8 nM; on cIAP1-BIR3, 1 to 1.02 nM. In addition, in the assay with Panc3.27 tumor cells, the IC50 is below 0.0026 nM.
For `CN[C@@H](C)C(=O)N[C@H](C(=O)N1CCC[C@H]1c1cncc(-n2cc(C(=O)NCCCCNC(=O)c3cn(-c4cncc([C@@H]5CCCN5C(=O)[C@@H](NC(=O)[C@H](C)NC)C(C)C)c4)c4ccccc34)c3ccccc32)c1)C(C)C` [Example 2J, (S,S,S)—N,N′-(butane-1,4-diyl)bis(1-(5-((S)-1-((S)-3-methyl-2-((S)-2-(methylamino)propanamido)butanol)pyrrolidin-2-yl)pyridin-3-yl)-1H-indole-3-carboxamide)], the EC50 on XIAP-BIR3 is 19.3 to 19.5 nM; on cIAP1-BIR3, 1.13 to 1.15 nM. The IC50 with Panc3.27 tumor cells is 0.18 to 1.21 nM.
Regarding `CN[C@@H](C)C(=O)N[C@H](C(=O)N1CCC[C@H]1c1cncc(-n2cc(C(=O)NCCCOCCCNC(=O)c3cn(-c4cncc([C@@H]5CCCN5C(=O)[C@@H](NC(=O)[C@H](C)NC)C(C)C)c4)c4ccccc34)c3ccccc32)c1)C(C)C` [Example 2I], the EC50 was 19.7 to 20.8 nM on XIAP-BIR3 and 0.5 to 0.51 nM on cIAP1-BIR3. For the same compound, the IC50 with Panc3.27 tumor cells was 0.18 to 1.21 nM.
